Source: PubChem BioAssay (NCI)
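Cultured in 96-well plates, cells were exposed to test compound for 48 hours across five concentrations. GI50 marks 50% less growth. TGI denotes the concentration required for complete inhibition of growth.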

Experiments:
Test in all cases: NCI-60 cell line screen, 48 h
UACC-257 melanoma = system: UACC-257 melanoma
DU-145 prostate = system: DU-145 prostate
PC-3 prostate = system: PC-3 prostate
CAKI-1 renal = system: CAKI-1 renal
786-0 renal = system: 786-0 renal
SN12C renal = system: SN12C renal
SW-620 colon = system: SW-620 colon
NCI-H23 lung = system: NCI-H23 lung
HS 578T breast = system: HS 578T breast
OVCAR-8 ovarian = system: OVCAR-8 ovarian
NCI-H522 lung = system: NCI-H522 lung
UACC-62 melanoma = system: UACC-62 melanoma
SK-MEL-2 melanoma = system: SK-MEL-2 melanoma
SNB-75 CNS = system: SNB-75 CNS
SF-295 CNS = system: SF-295 CNS
MCF7 breast = system: MCF7 breast
OVCAR-4 ovarian = system: OVCAR-4 ovarian
U251 CNS = system: U251 CNS
RPMI-8226 leukemia = system: RPMI-8226 leukemia
HOP-62 NSCLC = system: HOP-62 NSCLC
SR leukemia = system: SR leukemia
SK-MEL-5 melanoma = system: SK-MEL-5 melanoma
A498 renal = system: A498 renal
COLO 205 colon = system: COLO 205 colon
HCT-116 colon = system: HCT-116 colon
K-562 leukemia = system: K-562 leukemia
OVCAR-5 ovarian = system: OVCAR-5 ovarian
CCRF-CEM leukemia = system: CCRF-CEM leukemia
HL-60(TB) leukemia = system: HL-60(TB) leukemia
SF-539 CNS = system: SF-539 CNS
BT-549 breast = system: BT-549 breast
LOX IMVI melanoma = system: LOX IMVI melanoma
SF-268 CNS = system: SF-268 CNS
HT29 colon = system: HT29 colon
ACHN renal = system: ACHN renal
NCI-H226 lung = system: NCI-H226 lung
MDA-MB-435 = system: MDA-MB-435
SK-MEL-28 melanoma = system: SK-MEL-28 melanoma
HCC-2998 colon = system: HCC-2998 colon
HOP-92 NSCLC = system: HOP-92 NSCLC
MOLT-4 leukemia = system: MOLT-4 leukemia
SNB-19 CNS = system: SNB-19 CNS
NCI-H460 lung = system: NCI-H460 lung
EKVX NSCLC = system: EKVX NSCLC
OVCAR-3 ovarian = system: OVCAR-3 ovarian
HCT-15 colon = system: HCT-15 colon
NCI/ADR-RES ovarian = system: NCI/ADR-RES ovarian
MALME-3M melanoma = system: MALME-3M melanoma
KM12 colon = system: KM12 colon
MDA-MB-231 breast = system: MDA-MB-231 breast
A549 NSCLC = system: A549 NSCLC
M14 melanoma = system: M14 melanoma
UO-31 renal = system: UO-31 renal
RXF 393 renal = system: RXF 393 renal
IGROV1 ovarian = system: IGROV1 ovarian
TK-10 renal = system: TK-10 renal

With `CN(C)CCCNc1nc2ccccc2c2c(=O)c3cc(F)ccc3sc12` the GI50 (UACC-257 melanoma) was 2.08 µM, the TGI (UACC-257 melanoma) was 4.21 µM and the GI50 (DU-145 prostate) was 1.68 µM. The TGI (DU-145 prostate) was 3.16 µM, the GI50 (PC-3 prostate) was 1.8 µM and the TGI (PC-3 prostate) was 3.53 µM. For the same compound, the GI50 (CAKI-1 renal) was 1.58 µM, the TGI (CAKI-1 renal) was 2.94 µM and the GI50 (786-0 renal) was 1.47 µM. For the same compound, the TGI (786-0 renal) was 3.02 µM, the GI50 (SN12C renal) was 1.61 µM and the TGI (SN12C renal) was 3.15 µM. It also gave a GI50 (SW-620 colon) of 1.62 µM, a TGI (SW-620 colon) of 3.18 µM and a GI50 (NCI-H23 lung) of 1.67 µM. The TGI (NCI-H23 lung) was 3.17 µM, the GI50 (HS 578T breast) was 1.66 µM and the TGI (HS 578T breast) was 3.56 µM. For the same compound, the GI50 (OVCAR-8 ovarian) was 2.09 µM, the TGI (OVCAR-8 ovarian) was 4.91 µM and the GI50 (NCI-H522 lung) was 1.89 µM. It also gave a TGI (NCI-H522 lung) of 3.98 µM, a GI50 (UACC-62 melanoma) of 1.75 µM and a TGI (UACC-62 melanoma) of 3.24 µM. The GI50 (SK-MEL-2 melanoma) was 2 µM, the TGI (SK-MEL-2 melanoma) was 4.07 µM and the GI50 (SNB-75 CNS) was 1.33 µM. It also gave a TGI (SNB-75 CNS) of 2.75 µM, a GI50 (SF-295 CNS) of 1.78 µM and a TGI (SF-295 CNS) of 3.27 µM. The GI50 (MCF7 breast) was 1.13 µM, the TGI (MCF7 breast) was 2.66 µM and the GI50 (OVCAR-4 ovarian) was 2 µM. It also gave a TGI (OVCAR-4 ovarian) of 4.35 µM, a GI50 (U251 CNS) of 1.9 µM and a TGI (U251 CNS) of 4.41 µM. The GI50 (RPMI-8226 leukemia) was 2.32 µM, the TGI (RPMI-8226 leukemia) was 5.37 µM and the GI50 (HOP-62 NSCLC) was 1.98 µM. For the same compound, the TGI (HOP-62 NSCLC) was 4.2 µM, the GI50 (SR leukemia) was 4.01 µM and the TGI (SR leukemia) was > 100 µM. It also gave a GI50 (SK-MEL-5 melanoma) of 1.7 µM, a TGI (SK-MEL-5 melanoma) of 3.12 µM and a GI50 (A498 renal) of 1.81 µM. It also gave a TGI (A498 renal) of 3.68 µM, a GI50 (COLO 205 colon) of 2.12 µM and a TGI (COLO 205 colon) of 5.03 µM. It also gave a GI50 (HCT-116 colon) of 1.51 µM, a TGI (HCT-116 colon) of 3.19 µM and a GI50 (K-562 leukemia) of 2.33 µM. For the same compound, the TGI (K-562 leukemia) was 8.35 µM, the GI50 (OVCAR-5 ovarian) was 1.57 µM and the TGI (OVCAR-5 ovarian) was 2.95 µM. It also gave a GI50 (CCRF-CEM leukemia) of 2.23 µM, a TGI (CCRF-CEM leukemia) of 5.31 µM and a GI50 (HL-60(TB) leukemia) of 2.02 µM. For the same compound, the TGI (HL-60(TB) leukemia) was 4.14 µM, the GI50 (SF-539 CNS) was 1.61 µM and the TGI (SF-539 CNS) was 3.01 µM. It also gave a GI50 (BT-549 breast) of 10.1 µM, a TGI (BT-549 breast) of 22.9 µM and a GI50 (LOX IMVI melanoma) of 1.63 µM. For the same compound, the TGI (LOX IMVI melanoma) was 3.05 µM, the GI50 (SF-268 CNS) was 1.53 µM and the TGI (SF-268 CNS) was 3.16 µM. It also gave a GI50 (HT29 colon) of 1.7 µM, a TGI (HT29 colon) of 3.71 µM and a GI50 (ACHN renal) of 1.56 µM. For the same compound, the TGI (ACHN renal) was 2.92 µM, the GI50 (NCI-H226 lung) was 1.71 µM and the TGI (NCI-H226 lung) was 3.34 µM. The GI50 (MDA-MB-435) was 1.74 µM, the TGI (MDA-MB-435) was 3.36 µM and the GI50 (SK-MEL-28 melanoma) was 1.76 µM. For the same compound, the TGI (SK-MEL-28 melanoma) was 3.19 µM, the GI50 (HCC-2998 colon) was 1.67 µM and the TGI (HCC-2998 colon) was 3.24 µM. It also gave a GI50 (HOP-92 NSCLC) of 1.17 µM, a TGI (HOP-92 NSCLC) of 3.96 µM and a GI50 (MOLT-4 leukemia) of 2.13 µM. It also gave a TGI (MOLT-4 leukemia) of 4.48 µM, a GI50 (SNB-19 CNS) of 1.65 µM and a TGI (SNB-19 CNS) of 3.08 µM. The GI50 (NCI-H460 lung) was 1.76 µM, the TGI (NCI-H460 lung) was 3.44 µM and the GI50 (EKVX NSCLC) was 1.59 µM. It also gave a TGI (EKVX NSCLC) of 3.24 µM, a GI50 (OVCAR-3 ovarian) of 1.67 µM and a TGI (OVCAR-3 ovarian) of 3.17 µM. For the same compound, the GI50 (HCT-15 colon) was 1.65 µM, the TGI (HCT-15 colon) was 3.2 µM and the GI50 (NCI/ADR-RES ovarian) was 1.62 µM. The TGI (NCI/ADR-RES ovarian) was 3.18 µM, the GI50 (MALME-3M melanoma) was 1.62 µM and the TGI (MALME-3M melanoma) was 3.05 µM. The GI50 (KM12 colon) was 1.74 µM, the TGI (KM12 colon) was 3.3 µM and the GI50 (MDA-MB-231 breast) was 1.37 µM. The TGI (MDA-MB-231 breast) was 2.75 µM, the GI50 (A549 NSCLC) was 2.04 µM and the TGI (A549 NSCLC) was 4.81 µM. It also gave a GI50 (M14 melanoma) of 1.98 µM, a TGI (M14 melanoma) of 3.75 µM and a GI50 (UO-31 renal) of 1.48 µM. For the same compound, the TGI (UO-31 renal) was 2.83 µM, the GI50 (RXF 393 renal) was 1.46 µM and the TGI (RXF 393 renal) was 2.91 µM. The GI50 (IGROV1 ovarian) was 1.47 µM, the TGI (IGROV1 ovarian) was 2.94 µM and the GI50 (TK-10 renal) was 1.9 µM. It also gave a TGI (TK-10 renal) of 3.67 µM.
